Data set [1] in a line: Acute toxicity (LD50, Behrens-Karber method). The data set is classed as in vivo, ICR mice. The conditions noted are these: mouse, in vivo, ip, mortality during 30 days. The protocol:
Test compounds, dissolved or suspended in 0.5% aqueous CMC, were each intraperitoneally administered to ICR mice in a dose of 0.1 ml per 10 g body weight. LD50 (mg/kg) value of each test compound was calculated from the mortality of mice during 30 days by the Behrens-Karber method.

The test system of another data set is Leukemia L1210. Nature of the data set: Activity against Leukemia L1210, intraperitoneal, increase in life span of mice. In kind it is in vivo, female mice (BDF1 family). Particulars: for ED (maximum ILS) / ED30: Mus musculus, L1210, ip, ip once a day for 5 successive days; for ED (maximum ILS): daily dosage giving maximum increase of life span, read-out: O.D. (optimum dosage); for ED30: daily dosage increasing average survival days by 30%, read-out: ILS30; for Survivors after 60 days / Max. ILS % / Therapeutic ratio TR: ip; for Survivors after 60 days: 6-membered group; for Max. ILS %: 60-day observation, versus control; for Therapeutic ratio TR: O.D./ILS30. In outline:
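Beginning 24 hours after intraperitoneal implantation of 1×10^5 leukemia cells, six-mouse groups of female BDF1 mice receive the test compound once daily for five consecutive days by the ip or oral route. Survival is recorded up to 60 days and compared with untreated controls.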

As to `COCC(C)N(C[C@H]1O[C@H](OC2CCCC2)[C@H](O)[C@@H](O)[C@@H]1O)C(=O)N(CCCl)N=O` (stereo partly drawn) [Compound 172, 3-(1-methy-2-methoxyethyl)-3-(cyclopentyl α-D-glucopyranose-6-yl)-1-(2-chloroethyl)-1-nitrosourea], the LD50 – broadly, the dose at which mortality reaches 50% – at 720 h in data set [1] is 600 mg/kg. For the same molecule, in the data set on Leukemia L1210, the ED (maximum ILS) was 180 mg/kg, the ED30 was found to be 2.67 mg/kg, the “Survivors after 60 days” value is listed as 6/6 and the “Max. ILS %” value was above 700%. Also, the “Therapeutic ratio TR” value in the data set with Leukemia L1210 came to 67.3.

Turning to `CC(C)(C)O[C@H]1O[C@H](CN(C(=O)N(CCCl)N=O)C2CCCCC2)[C@@H](O)[C@H](O)[C@H]1O` [Compound 173, 3-cyclohexyl-3-(tert-butyl α-D-glucopyranose-6-yl)-1-(2-chloroethyl)-1-nitrosourea], the LD50 at 720 h in data set [1] was determined as 510 mg/kg. Also, in the data set with Leukemia L1210, the ED (maximum ILS) amounted to 160 mg/kg, the ED30 is 3.16 mg/kg, the “Survivors after 60 days” value is given as 5/6 and the “Max. ILS %” value is given as above 630%. For the same molecule, the “Therapeutic ratio TR” value with Leukemia L1210 is given as 50.6.

As for `CC(C)CO[C@@H]1O[C@H](CO)[C@@H](O)[C@H](O)[C@H]1N(C(=O)N(CCCl)N=O)C(C)(C)C` [Compound 176, 3-tert-butyl-3-(isobutyl β-D-glucopyranose-2-yl)-1-(2-chloroethyl)-1-nitrosourea], the LD50 at 720 h in data set [1] is 620 mg/kg. In the data set with Leukemia L1210, the ED (maximum ILS) is 180 mg/kg, the ED30 came out at 5.9 mg/kg, the “Survivors after 60 days” value is recorded as 6/6 and the “Max. ILS %” value is above 700%. Besides, the “Therapeutic ratio TR” value with Leukemia L1210 is reported as 30.5.

The molecule `C=C(C)CO[C@H]1O[C@H](CN(C(=O)N(CCCl)N=O)C(C)(C)C)[C@@H](O)[C@H](O)[C@H]1O` [Compound 177, 3-tert-butyl-3-(2-methyl-2-propenyl α-D-glucopyranose-6-yl)-1-(2-chloroethyl)-1-nitrosourea] showed a 50% lethal dose (LD50) at 720 h in data set [1] of 550 mg/kg. Besides, in the data set on Leukemia L1210, the ED (maximum ILS) was 180 mg/kg, the ED30 came out at 2.75 mg/kg, the “Survivors after 60 days” value is 6/6 and the “Max. ILS %” value was above 700%. Also, the “Therapeutic ratio TR” value in the data set on Leukemia L1210 came out at 65.4.

As to `COc1ccc(CO[C@H]2O[C@H](CN(C(=O)N(CCCl)N=O)C(C)(C)C)[C@@H](O)[C@H](O)[C@H]2O)cc1` [Compound 182, 3-tert-butyl-3-(p-methoxybenzyl α-D-glucopyranose-6-yl)-1-(2-chloroethyl)-1-nitrosourea], in data set [1], the median lethal dose (LD50) at 720 h was 420 mg/kg. Further, in the data set with Leukemia L1210, the ED (maximum ILS) was 140 mg/kg, the ED30 was 3.49 mg/kg, the “Survivors after 60 days” value is recorded as 5/6 and the “Max. ILS %” value is given as above 620%. Moreover, in the data set on Leukemia L1210, the “Therapeutic ratio TR” value was 40.1.

In data set [1], `CC(C)CO[C@@H]1O[C@H](CN(CC(C)(C)C)C(=O)N(CCCl)N=O)[C@@H](O)[C@H](O)[C@H]1O` [Compound 184, 3-neopentyl-3-(isobutyl β-D-glucopyranose-6-yl)-1-(2-chloroethyl)-1-nitrosourea] came in with an LD50 at 720 h of 540 mg/kg. In the data set on Leukemia L1210, the ED (maximum ILS) was 170 mg/kg, the ED30 stood at 2.93 mg/kg, the “Survivors after 60 days” value is reported as 6/6 and the “Max. ILS %” value is reported as above 700%. Besides, the “Therapeutic ratio TR” value in the data set with Leukemia L1210 came to 58.0.

`CCOCCO[C@H]1O[C@H](CN(CC(C)(C)C)C(=O)N(CCCl)N=O)[C@@H](O)[C@H](O)[C@H]1O` [Compound 187, 3-neopentyl-3-(2-ethoxyethyl α-D-glucopyranose-6-yl)-1-(2-choroethyl)-1-nitrosourea] showed an LD50 at 720 h in data set [1] of 510 mg/kg. In the data set on Leukemia L1210, the ED (maximum ILS) came out at 160 mg/kg, the ED30 was 2.66 mg/kg, the “Survivors after 60 days” value is listed as 6/6 and the “Max. ILS %” value is above 700%. For the same molecule, the “Therapeutic ratio TR” value in the data set on Leukemia L1210 is given as 60.2.

For the origin of these results see US4593090A, “Novel nitrosourea compounds, method for preparing same, and pharmaceutical composition containing same” (Gogo Kimura, priority 1981, dated 1986).
